Assay [1] concerns the target T1, RhOpn5 (Rimicaris hybisae, UniProt Z9SF72QZI5).
T1 construct: 178 C-terminal residues truncated, C-terminal Rho1D4 tag (ETSQVAPA), human-codon optimized, HEK293T; transcriptome reads SRA SRP339896
T1 sequence (Z9SF72QZI5 1-407 E336Q): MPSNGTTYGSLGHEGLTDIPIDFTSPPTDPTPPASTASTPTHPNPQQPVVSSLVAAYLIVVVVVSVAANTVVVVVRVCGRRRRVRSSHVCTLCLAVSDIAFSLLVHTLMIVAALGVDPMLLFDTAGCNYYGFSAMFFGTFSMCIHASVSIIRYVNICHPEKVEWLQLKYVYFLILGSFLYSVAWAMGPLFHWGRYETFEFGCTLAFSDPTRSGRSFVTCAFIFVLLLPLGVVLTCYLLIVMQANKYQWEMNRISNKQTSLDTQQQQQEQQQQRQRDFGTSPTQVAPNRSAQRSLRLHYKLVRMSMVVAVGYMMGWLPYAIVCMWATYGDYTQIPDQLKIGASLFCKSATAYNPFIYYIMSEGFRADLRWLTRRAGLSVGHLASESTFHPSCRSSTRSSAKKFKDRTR
The experiment in a line: UV-visible absorption spectroscopy of purified pigment. The format is binding. The note with it: covalent (Schiff base, Lys296); pH 8.0 and 6.5; 0 °C; mutation in bovine rhodopsin numbering.

The target in assay [2] is T2, RhPeropsin (Rimicaris hybisae, UniProt Z9VFR8UU34).
T2 construct: C-terminal Rho1D4 tag (ETSQVAPA), human-codon optimized, expressed in HEK293T, no truncation stated; transcriptome reads SRA SRP339896
T2 sequence (Z9VFR8UU34 1-341): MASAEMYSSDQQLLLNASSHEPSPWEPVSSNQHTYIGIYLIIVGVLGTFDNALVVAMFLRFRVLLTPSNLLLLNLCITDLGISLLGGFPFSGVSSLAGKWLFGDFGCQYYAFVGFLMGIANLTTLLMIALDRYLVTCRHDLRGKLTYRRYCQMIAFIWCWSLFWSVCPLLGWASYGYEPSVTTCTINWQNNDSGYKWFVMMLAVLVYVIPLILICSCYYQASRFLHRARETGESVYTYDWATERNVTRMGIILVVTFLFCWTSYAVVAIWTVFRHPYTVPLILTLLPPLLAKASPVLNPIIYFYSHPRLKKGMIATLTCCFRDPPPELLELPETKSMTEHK
Description: HPLC of retinal isomers after irradiation. The assay is classed as biochemical. The following applies: covalent (Schiff base, Lys296); photoproduct under yellow light (>500 nm); 0 °C.

Assay [3] concerns the target T3, RhOpn5 (Rimicaris hybisae, UniProt Z9SF72QZI5).
T3 construct: 178 C-terminal residues truncated, C-terminal Rho1D4 tag (ETSQVAPA), human-codon optimized, HEK293T; transcriptome reads SRA SRP339896
T3 sequence (Z9SF72QZI5 1-407): T1 sequence (Z9SF72QZI5 1-407 E336Q) with Q336E
Description: absorption spectroscopy and HPLC of retinal in purified pigment. The note with it: covalent (Schiff base, Lys296); dark state; 0 °C. The format is binding.

Assay [4] has as its target T4, RhOpn5 (Rimicaris hybisae, UniProt Z9SF72QZI5, D98N, form not given).
T4 construct: 178 C-terminal residues truncated, C-terminal Rho1D4 tag (ETSQVAPA), human-codon optimized, HEK293T; transcriptome reads SRA SRP339896
T4 sequence (Z9SF72QZI5 1-407 D98N): T1 sequence (Z9SF72QZI5 1-407 E336Q) with D98N, Q336E
The experiment in a line: UV-visible absorption spectroscopy of purified pigment. The format is binding. The note with it: covalent (Schiff base, Lys296); pH 8.0 and 6.5; 0 °C; mutation in bovine rhodopsin numbering; counterion mutant.

In assay [5] the target is T5, RhOpn5 (Rimicaris hybisae, UniProt Z9SF72QZI5, E196Q, form not given).
T5 construct: 178 C-terminal residues truncated, C-terminal Rho1D4 tag (ETSQVAPA), human-codon optimized, HEK293T; transcriptome reads SRA SRP339896
T5 sequence (Z9SF72QZI5 1-407 E196Q): T1 sequence (Z9SF72QZI5 1-407 E336Q) with E196Q, Q336E
The description is as above. The following applies: covalent (Schiff base, Lys296); pH 8.0 and 6.5; 0 °C; mutation in bovine rhodopsin numbering. The format is binding.

Assay [6] has as its target T6, RhOpn5 (Rimicaris hybisae, UniProt Z9SF72QZI5, E199Q, form not given).
T6 construct: 178 C-terminal residues truncated, C-terminal Rho1D4 tag (ETSQVAPA), human-codon optimized, HEK293T; transcriptome reads SRA SRP339896
T6 sequence (Z9SF72QZI5 1-407 E199Q): T1 sequence (Z9SF72QZI5 1-407 E336Q) with E199Q, Q336E
The assay is described as above. The assay is classed as binding. The following applies: covalent (Schiff base, Lys296); pH 8.0 and 6.5; 0 °C; mutation in bovine rhodopsin numbering.

For assay [7], the target named is T3, RhOpn5. Description: absorption spectroscopy and HPLC of retinal in purified pigment. The format is biochemical. The following applies: covalent (Schiff base, Lys296); photoproduct under yellow light (>480 nm); 0 °C.
The target of assay [8] is T2, RhPeropsin. The description is as above. The format is biochemical. The note with it: covalent (Schiff base, Lys296); dark state; photoisomerized under yellow light (>500 nm); 0 °C.

Here are results for two molecules from PMC12221356, “A repertoire of visible light–sensitive opsins in the deep-sea hydrothermal vent shrimp Rimicaris hybisae” (The Journal of Biological Chemistry, 2025).

Where a chain is given by its changes, count along the chain named.

Consider `CC1=C(/C=C/C(C)=C/C=C\C(C)=C\C=O)C(C)(C)CCC1` [11-cis-retinal], for which the “UV-visible absorption spectroscopy of purified pigment” value in assay [1] is “the E179Q, E182Q, and E286Q mutants did not show pH-dependent spectral changes”; in assay [4], “the D83N mutant showed a significant pH-dependent change, with a small peak in the visible”; in assay [5], “the E179Q, E182Q, and E286Q mutants did not show pH-dependent spectral changes”; in assay [6], “the E179Q, E182Q, and E286Q mutants did not show pH-dependent spectral changes”. For the same molecule, the “HPLC of retinal isomers after irradiation” value in assay [2] is given as “RhPeropsin converts all-trans-retinal to 11-cis-retinal upon visible light absorption”. In addition, the “absorption spectroscopy and HPLC of retinal in purified pigment” value in assay [3] is “RhOpn5 forms a blue light–sensitive pigment binding 11-cis-retinal in the resting state”.

Take `CC1=C(/C=C/C(C)=C/C=C/C(C)=C/C=O)C(C)(C)CCC1` [all-trans-retinal]: the “absorption spectroscopy and HPLC of retinal in purified pigment” value in assay [7] was “accompanied by the conversion from 11-cis- to all-trans-retinal”; in assay [8], “RhPeropsin exclusively binds all-trans-retinal in the dark and produces 11-cis-retinal from all-trans-retinal”.
